Results taken from ChEMBL document CHEMBL5614443, “Hybrids of 3-Hydroxypyridin-4(1H)-ones and Long-Chain 4-Aminoquinolines as Potent Biofilm Inhibitors of Pseudomonas aeruginosa Potentiate Tobramycin and Polymyxin B Activity” (J Med Chem, 2024).
Activity calls are given as the source filed them. The rule behind the calls is not given here.

Key:
[1] = system: Pseudomonas aeruginosa; experiment: Antibacterial activity against Pseudomonas aeruginosa PAO1 assessed as inhibition of bacterial growth incubated for 24 hrs by CLSI protocol based method; type: functional
[2] = system: Pseudomonas aeruginosa; experiment: Antibiofilm activity against Pseudomonas aeruginosa PAO1 assessed as inhibition of biofilm formation incubated for 24 hrs by crystal violet staining based analysis; type: functional, organism-based; conditions: PAO1, 24 h
[3] = Inhibition of quorum sensing system in wildtype Pseudomonas aeruginosa PAO1 assessed as inhibition of elastase production incubated for 24 hrs by elastin-congo red dye based absorbance assay
[4] = Inhibition of quorum sensing system in wildtype Pseudomonas aeruginosa PAO1 assessed as inhibition of rhamnolipid production incubated for 24 hrs by absorbance based microtiter plate reader analysis
[5] = Inhibition of quorum sensing system in wildtype Pseudomonas aeruginosa PAO1 assessed as inhibition of pyocyanin production incubated for 24 hrs by absorbance based analysis
[6] = Hemolytic activity in rabbit erythrocytes assessed as hemolysis rate at 200 uM incubated for 2 hrs by microplate reader analysis (reference value: 100 %); type: toxicity, cell-based, Oryctolagus cuniculus, Erythrocyte; conditions: read-out: Activity
[7] = Cytotoxicity against African green monkey Vero cells assessed as reduction in cell viability incubated for 24 hrs by MTT assay; type: toxicity, cell-based; conditions: chlorocebus sabaeus
[8] = Toxicity in Caenorhabditis elegans assessed as effect on survival at 100 uM measured at 48 hrs by bright-field microscopic analysis
[9] = system: Pseudomonas aeruginosa; experiment: Induction of Fe3+ chelating activity in Pseudomonas aeruginosa PAO1 assessed as increase in pyochelin production at 2.5 to 50 uM incubated for 24 hrs by fluorescence microplate reader; conditions: dose 2.5-50 µM
[10] = system: Pseudomonas aeruginosa; experiment: Induction of Fe3+ chelating activity in Pseudomonas aeruginosa PAO1 assessed as increase in pyoverdine production at 2.5 to 50 uM incubated for 24 hrs by fluorescence microplate reader; conditions: dose 2.5-50 µM
[11] = Metal chelating activity assessed as Fe3+ chelation by measuring iron chelation constant by fluorescence competition assay
[12] = system: Pseudomonas aeruginosa; experiment: Antibacterial activity against Pseudomonas aeruginosa PAO1 assessed as inhibition of bacterial growth at 0.1 to 50 uM measured upto 24 hrs by CLSI protocol based method; type: functional, organism-based; conditions: dose 0.1-50 µM
[13] = system: Pseudomonas aeruginosa; experiment: Antibiofilm activity against Pseudomonas aeruginosa PAO1 assessed as decrease in biofilm formation incubated for 24 hrs by LIVE/DEAD BacLight staining based 3D confocal laser scanning microscopy; type: functional, organism-based; conditions: dose 1-10 µM
[14] = system: Pseudomonas aeruginosa; experiment: Antibacterial activity against Pseudomonas aeruginosa PAO1 assessed as bacterial survival rate at 1/2 MIC incubated for 24 hrs by LB agar plate method relative to control; type: functional
[15] = system: Pseudomonas aeruginosa; experiment: Antibacterial activity against Pseudomonas aeruginosa PAO1 infected in Caenorhabditis elegans assessed as reduction in worm mortality by measuring survival at 1/2 MIC by bright-field microscopic analysis (reference value: 24 hrs); type: functional

Cc1cc(=O)c(O)c(CNCCCNc2ccnc3ccccc23)n1C
MIC [1]: ≥ 512 µM
IC50 [2]: > 50 µM

CCCn1c(C)cc(=O)c(O)c1CNCCCCCCCCNc1ccnc2ccccc12
MIC [1]: ≥ 512 µM
IC50 [2]: > 50 µM

Cc1cc(=O)c(O)c(CNCCNc2ccnc3ccccc23)n1C
MIC [1]: ≥ 512 µM
IC50 [2]: > 50 µM

Cc1cc(=O)c(O)cn1CCCCCCCCNc1ccnc2cc(Cl)ccc12
MIC [1]: ≥ 512 µM
IC50 [2]: 25.6 µM

COCCn1c(C)cc(=O)c(O)c1CNCCCCCCCCNc1ccnc2ccccc12
MIC [1]: ≥ 512 µM
IC50 [2]: > 50 µM

NCCCCCCCCNc1ccnc2cc(Cl)ccc12
MIC [1]: ≥ 512 µM
IC50 [2]: > 50 µM
IC50 [3]: 43.5 µM
IC50 [4]: > 50 µM
IC50 [5]: > 50 µM
hemolysis at 2 h, 200 µM [6]: < 1.5%
CC50 at 24 h [7]: 189 µM
Activity [8]: Toxic
Activity [9]: Active
Activity [10]: Active

Cc1cc(=O)c(OCc2ccccc2)c(C(=O)NCCCCCCCCNc2ccnc3cc(Cl)ccc23)n1C
MIC [1]: ≥ 512 µM
IC50 [2]: > 50 µM
Activity [9]: Active
Activity [10]: Active

CCCCCCCc1[nH]c2ccccc2c(=O)c1O
Activity [10]: Active

Cc1cc(=O)c(O)c(CNCCCCCCCCCCNc2ccnc3cc(Cl)ccc23)n1C
MIC [1]: ≥ 512 µM
IC50 [2]: > 50 µM

Cc1cc(=O)c(O)c(CNCCCCCCCCNc2ccncc2)n1C
MIC [1]: ≥ 512 µM
IC50 [2]: > 50 µM

Cc1cc(=O)c(O)c(CNCCCCCCCCNc2ccnc3c(Cl)cccc23)n1C
MIC [1]: ≥ 512 µM
IC50 [2]: > 50 µM

Cc1cc(=O)c(O)c(C(=O)NCCCCCCCCNc2ccnc3ccccc23)n1C
MIC [1]: ≥ 512 µM
IC50 [2]: 13 µM

Cc1cc(=O)c(O)cn1CCCCCCCCNc1ccnc2ccccc12
MIC [1]: ≥ 512 µM
IC50 [2]: > 50 µM

CCCCCn1c(C)cc(=O)c(O)c1CNCCCCCCCCNc1ccnc2cc(Cl)ccc12
MIC [1]: ≥ 512 µM
IC50 [2]: > 50 µM

Cc1cc(=O)c(OCc2ccccc2)c(CNCCCCCCCCNc2ccnc3cc(Cl)ccc23)[nH]1
MIC [1]: ≥ 512 µM
IC50 [2]: > 50 µM

Cc1cc(=O)c(O)c(CNCCCCCCCCNc2ccnc3cc(C(F)(F)F)ccc23)n1C
MIC [1]: ≥ 512 µM
IC50 [2]: 12.9 µM

O=c1cc(CNCCCCCCCCNc2ccnc3ccccc23)n(O)cc1O
MIC [1]: ≥ 512 µM
IC50 [2]: > 50 µM

O=c1cc(CNCCCCCCCCNc2ccnc3cc(Cl)ccc23)n(O)cc1O
MIC [1]: ≥ 512 µM
IC50 [2]: > 50 µM

Cc1cc(=O)c(O)c(CNCCCCCCCCNc2ccnc(Cl)c2)n1C
MIC [1]: ≥ 512 µM
IC50 [2]: > 50 µM

Cc1cc(=O)c(O)c(CNCCCCCCCCNc2ccnc3cccc(Cl)c23)n1C
MIC [1]: ≥ 512 µM
IC50 [2]: > 50 µM

Cn1cc(O)c(=O)cc1CNCCCCCCCCNc1ccnc2cc(Cl)ccc12
MIC [1]: ≥ 512 µM
IC50 [2]: > 50 µM

CCn1c(C)cc(=O)c(O)c1CNCCCCCCCCNc1ccnc2ccccc12
MIC [1]: ≥ 512 µM
IC50 [2]: > 50 µM

Cc1cc(=O)c(O)c(CNCCCCCCCCNc2ccnc3ccccc23)n1C
MIC [1]: ≥ 512 µM
IC50 [2]: 8.1 µM

Cc1cc(=O)c(O)c(CNCCCCCCNc2ccnc3ccccc23)n1C
MIC [1]: ≥ 512 µM
IC50 [2]: 16.2 µM

Cc1c(O)c(=O)ccn1C
pFe3+ [11]: 21.7

Cc1cc(=O)c(O)c(CNCCCCCCCNc2ccnc3cc(Cl)ccc23)n1C
MIC [1]: ≥ 512 µM
IC50 [2]: 9.4 µM

CCCCCn1c(C)cc(=O)c(O)c1CNCCCCCCCCNc1ccnc2ccccc12
MIC [1]: ≥ 512 µM
IC50 [2]: 23.6 µM

CCCCn1c(C)cc(=O)c(O)c1CNCCCCCCCCNc1ccnc2cc(Cl)ccc12
MIC [1]: ≥ 512 µM
IC50 [2]: 14.1 µM

Cc1cc(=O)c(O)c(CNCCCCCCCCNc2ccnc3cc(Cl)ccc23)n1C
MIC [1]: ≥ 512 µM
IC50 [2]: 5.4 µM
Activity [12]: inactive
Activity [13]: Dose-Dependent Effect
IC50 [3]: 30.9 µM
IC50 [4]: > 50 µM
IC50 [5]: 23.7 µM

Cc1cc(=O)c(O)c(CNCCCCNc2ccnc3ccccc23)n1C
MIC [1]: ≥ 512 µM
IC50 [2]: > 50 µM

CC[C@H]1OC(=O)[C@H](C)[C@@H](O[C@H]2C[C@@](C)(OC)[C@@H](O)[C@H](C)O2)[C@H](C)[C@@H](O[C@@H]2O[C@H](C)C[C@H](N(C)C)[C@H]2O)[C@](C)(O)C[C@@H](C)CN(C)[C@H](C)[C@@H](O)[C@]1(C)O [AZITHROMYCIN]
IC50 [2]: 6.6 µM

Cc1cc(=O)c(O)c(CNCCCCCCCCNc2ccnc3cc(F)ccc23)n1C
MIC [1]: ≥ 512 µM
IC50 [2]: > 50 µM

Cc1cc(=O)c(O)c(CNCCCCCCNc2ccnc3cc(Cl)ccc23)n1C
MIC [1]: ≥ 512 µM
IC50 [2]: 18.2 µM

COc1ccc2c(NCCCCCCCCNCc3cc(=O)c(O)cn3C)ccnc2c1
MIC [1]: ≥ 512 µM
IC50 [2]: > 50 µM

NC[C@H]1O[C@H](O[C@H]2[C@H](O)[C@@H](O[C@H]3O[C@H](CO)[C@@H](O)[C@H](N)[C@H]3O)[C@H](N)C[C@@H]2N)[C@H](N)C[C@@H]1O [TOBRAMYCIN]
Survival [14]: ~20%
Survival [15]: 72 h

Cc1cc(=O)c(O)c(CNCCCCCCCNc2ccnc3ccccc23)n1C
MIC [1]: ≥ 512 µM
IC50 [2]: 13.2 µM

POLYMYXIN B
Survival [14]: 18%
Survival [15]: 88 h

Cn1cc(O)c(=O)cc1CNCCCCCCCCNc1ccnc2ccccc12
MIC [1]: ≥ 512 µM
IC50 [2]: > 50 µM

CCCCn1c(C)cc(=O)c(O)c1CNCCCCCCCCNc1ccnc2ccccc12
MIC [1]: ≥ 512 µM
IC50 [2]: 8.9 µM

COc1ccc2c(NCCCCCCCCNCc3c(O)c(=O)cc(C)n3C)ccnc2c1
MIC [1]: ≥ 512 µM
IC50 [2]: 16 µM

COc1ccc2c(NCCCCCCCCNC(=O)c3c(O)c(=O)cc(C)n3C)ccnc2c1
MIC [1]: ≥ 512 µM
IC50 [2]: > 50 µM

Cc1cc(=O)c(O)c(CNCCCCCCCCNc2ccnc3cc(Br)ccc23)n1C
MIC [1]: ≥ 512 µM
IC50 [2]: > 50 µM

Cc1cc(=O)c(O)c(CNCCCCCNc2ccnc3ccccc23)n1C
MIC [1]: ≥ 512 µM
IC50 [2]: > 50 µM

Cc1cc(=O)c(O)c(CNCCCCCCCCNc2ccnc3ccc(Cl)cc23)n1C
MIC [1]: ≥ 512 µM
IC50 [2]: 18.3 µM

Cc1cc(=O)c(O)c(CNCCCCCCCCCCNc2ccnc3ccccc23)n1C
MIC [1]: ≥ 512 µM
IC50 [2]: 32.6 µM
